Laboratory results reported in patent US10793568B2, “Hormone receptor modulators for treating metabolic conditions and disorders” (ARDELYX, INC., priority 2016, dated 2020).
Like-named read-outs stand apart in the source and are kept apart here.

Key:
[1] = target: human Farnesoid X receptor ligand-binding domain/Gal4 DNA binding domain chimera (Homo sapiens (Human), UniProt Q96RI1); test: Cell-based assay of FXR activation (FXR-UAS-bla HEK 293T beta-lactamase reporter); conditions: cellular FXR beta-lactamase reporter assay; for Emax: HEK-293T, extent of activation relative to GW4064, read-out: % Efficacy; for EC50: FXR-UAS-bla HEK 293T cells, 16 h, pEC50 = -log EC50
How it was run: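 HEK 293T cells stably expressing a Gal4-fused human FXR LBD and a UAS-driven beta-lactamase reporter were incubated with serially diluted compounds for 16 h at 37 °C in phenol red-free DMEM with 2% charcoal-stripped FBS. CCF4 FRET read-out: excitation 409 nm, emission 447 nm. pEC50 comes from a 3-parameter logistic fit, and efficacy is given as % of GW4064.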

[2] = target: ligand binding domain of human FXR (Homo sapiens (Human), UniProt Q96RI1); test: FXR ligand binding assay (LanthaScreen TR-FRET, SRC2-2 peptide recruitment); conditions: for pEC50: -log EC50, concentration required to produce 50% activation; for Emax: read-out: % Efficacy
[3] = extent of activation relative to GW4064

Chain of human Farnesoid X receptor ligand-binding domain/Gal4 DNA binding domain chimera (Q96RI1 262-486, change not shown): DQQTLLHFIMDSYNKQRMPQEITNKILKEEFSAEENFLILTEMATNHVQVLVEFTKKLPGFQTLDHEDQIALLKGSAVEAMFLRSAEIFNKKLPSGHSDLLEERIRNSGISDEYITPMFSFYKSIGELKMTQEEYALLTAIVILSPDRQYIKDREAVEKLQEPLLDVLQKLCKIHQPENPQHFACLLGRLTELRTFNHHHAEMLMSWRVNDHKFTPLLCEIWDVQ
Chain of human Farnesoid X receptor ligand-binding domain/Gal4 DNA binding domain chimera (P04386 1-147 partner): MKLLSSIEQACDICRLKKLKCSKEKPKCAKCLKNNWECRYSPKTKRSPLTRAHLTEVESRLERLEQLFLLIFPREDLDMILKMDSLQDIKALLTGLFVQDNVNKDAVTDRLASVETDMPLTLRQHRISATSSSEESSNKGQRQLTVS
Chain of ligand binding domain of human FXR (Q96RI1 262-486): as the sequence (Q96RI1 262-486, change not shown) above

| SMILES | Emax [1] | EC50 [1] | pEC50 [2] | Emax [2, 3] | Emax [2] |
| --- | --- | --- | --- | --- | --- |
| O=C(O)c1ccc(N2C(=O)[C@@H]3C[C@H]2C[C@H]3OCc2c(-c3c(Cl)cccc3Cl)noc2C2CC2)cc1 [Compound I-244, 4-[(1S,4R,5R)-5-{[5-cyclopropyl-3-(2,6-dichlorophenyl)-1,2-oxazol-4-yl]methoxy}-3-oxo-2-azabicyclo[2.2.1]heptan-2-yl]benzoic Acid] | 102% | 2 nM | 8.4 | 130% |  |
| O=C(O)c1cc(F)c(N2C[C@@H]3C[C@H]2C[C@H]3OCc2c(-c3c(Cl)cccc3Cl)noc2C2CC2)cc1F [Compound I-105, 4-[(1S,4S,5R)-5-{[5-cyclopropyl-3-(2,6-dichlorophenyl)-1,2-oxazol-4-yl]methoxy}-2-azabicyclo[2.2.1]heptan-2-yl]-2,5-difluorobenzoic Acid] | 112% | 1.26 nM | 9.4 | 142% |  |
| O=C(O)c1cc(C2CCCC2)c2nc(N3C[C@H]4C[C@@H]3C[C@@H]4OCc3c(-c4c(Cl)cccc4Cl)noc3C3CC3)sc2c1 [Compound I-285, 4-cyclopentyl-2-[(1R,4R,5S)-5-{[5-cyclopropyl-3-(2,6-dichlorophenyl)-1,2-oxazol-4-yl]methoxy}-2-azabicyclo[2.2.1]heptan-2-yl]-1,3-benzothiazole-6-carboxylic Acid] | 100% | 2.51 nM | 8.9 | 116% |  |
| O=C(CCc1ccc(N2C[C@@H]3C[C@H]2C[C@H]3OCc2c(-c3c(Cl)cccc3Cl)noc2C2CC2)c(F)c1)NS(=O)(=O)C1CCOCC1 [Compound I-238, 3-(4-((1S,4S,5R)-5-((5-cyclopropyl-3-(2,6-dichlorophenyl)isoxazol-4-yl)methoxy)-2-azabicyclo[2.2.1]heptan-2-yl)-3-fluorophenyl)-N-((tetrahydro-2H-pyran-4-yl)sulfonyl)propanamide] | 95% | 2.51 nM | 8.6 | 176% |  |
| O=C(O)c1cc(F)c2nc(N3C[C@H]4C[C@@H]3[C@H](OCc3c(-c5c(Cl)cccc5Cl)noc3C3CC3)C4)sc2c1 [Compound I-65, 2-[(1R,4S,6R)-6-{[5-cyclopropyl-3-(2,6-dichlorophenyl)-1,2-oxazol-4-yl]methoxy}-2-azabicyclo[2.2.1]heptan-2-yl]-4-fluoro-1,3-benzothiazole-6-carboxylic Acid] | 52% | 100 nM | 6.9 |  | 45% |
| CN(CC(=O)O)S(=O)(=O)c1ccc(N2C[C@@H]3C[C@H]2C[C@H]3OCc2c(-c3c(Cl)cccc3Cl)noc2C2CC2)cc1 [Compound I-143, 2-{N-methyl4-[(1S,4S,5R)-5-{[5-cyclopropyl-3-(2,6-dichlorophenyl)-1,2-oxazol-4-yl]methoxy}-2-azabicyclo[2.2.1]heptan-2-yl]benzenesulfonamido}acetic Acid] | 105% | 1 nM | 8 | 132% |  |
| O=C(O)c1cnc(N2C[C@@H]3C[C@H]2C[C@H]3OCc2c(-c3c(Cl)cccc3Cl)noc2C2(F)CC2)c(F)c1 [Compound I-130, 6-[(1S,4S,5R)-5-{[3-(2,6-dichlorophenyl)-5-(1-fluorocyclopropyl)-1,2-oxazol-4-yl]methoxy}-2-azabicyclo[2.2.1]heptan-2-yl]-5-fluoropyridine-3-carboxylic Acid] | 99% | 7.94 nM | 8 | 152% |  |
| CCCS(=O)(=O)NC(=O)c1cc(F)c2nc(N3C[C@@H]4C[C@H]3C[C@H]4OCc3c(-c4c(Cl)cccc4Cl)noc3C3CC3)sc2c1 [Compound I-29, 2-[(1S,4S,5R)-5-{[5-cyclopropyl-3-(2,6-dichlorophenyl)-1,2-oxazol-4-yl]methoxy}-2-azabicyclo[2.2.1]heptan-2-yl]-4-fluoro-N-(propane-1-sulfonyl)-1,3-benzothiazole-6-carboxamide] | 118% | 1.58 nM | 7.8 | 194% |  |
